Laboratory results taken from US10385024B2, “Compounds and methods for inhibiting NHE-mediated antiport in the treatment of disorders associated with fluid retention or salt overload and gastrointestinal tract disorders” (Ardelyx, Inc., priority 2012, dated 2019).

Key:
[1] = system: absorption of sodium from the intestinal lumen; assay: Inhibition of intestinal sodium absorption (urinary sodium and fecal form); assay type: in vivo, Sprague-Dawley rats; conditions: rat; for response vs control in vivo at 3 mg/kg: 3 mg/kg oral gavage, urine 16 h post-dose, asterisks = significance vs vehicle (*P<0.05, **P<0.01, ***P<0.001), read-out: uNa (% of vehicle); for FFS: fecal form score, scale 1 (normal pellet) to 5 (liquid fecal streams), group average, 3 mg/kg oral, 16 h post-dose, vehicle = 1
Experimental: Urinary sodium concentration and fecal form were measured to assess the ability of selected example compounds to inhibit the absorption of sodium from the intestinal lumen. Eight-week old Sprague-Dawley rats were purchased from Charles River Laboratories (Hollister, Calif.), were housed 2 per cage, and acclimated for at least 3 days before study initiation. Animals were fed Harlan Teklad Global 2018 rodent chow (Indianapolis, Ind.) and water ad libitum throughout the study and maintained in a standard light/dark cycle of 6 AM to 6 PM. On the day of the study, between 4 PM and 5 PM, a group of rats (n=6) were dosed via oral gavage with test compound at the dosage indicated or vehicle (water) at a volume of 10 mL/kg. After dose administration animals were placed in individual metabolic cages where they were also fed the same chow in meal form and watered ad libitum. At 16 h post-dose, the urine samples were collected and fecal form was assessed by two independent observations. Fecal forms were scored according to a common scale associated with increasing fecal water to the wettest observation in the cage's collection funnel (1, normal pellet; 2, pellet adhering to sides of collection funnel due to moisture; 3, loss of normal pellet shape; 4, complete loss of shape with a blotting pattern; 5, liquid fecal streams evident). A rat's fecal form score (FFS) was determined by averaging both observational scores for all rats within a group (n=6). In every study the vehicle group average was 1. For urine samples, the volumes were determined gravimetrically and centrifuged at 3,600×g. The supernatants were diluted 100-fold in deionized Milli-Q water then filtered through a 0.2 μm GHP Pall AcroPrep filter plate (Pall Life Sciences, Ann Arbor, Mich.) prior to analysis by ion chromatography. Ten microliters of each filtered extract was injected onto a Dionex ICS-3000 ion chromatograph system (Dionex, Sunnyvale, Calif.). Cations were separated by an isocratic method using 25 mM methanesulfonic acid as the eluent on an IonPac CS12A 2 mm i.d.×250 mm, 8 μm particle size cation exchange column (Dionex). Sodium was quantified using standards prepared from a cation standard mix containing Li^+, Na^+, NH4^+, K^+, Mg^2+, and Ca^2+ (Dionex). The mean mass of sodium urinated for every group in the 16 h period was determined with the vehicle group usually urinating approximately 21 mg sodium. The urine Na (uNa) for rats in the test groups were expressed as a percentage of the vehicle mean and the means were compared to that of the vehicle group by utilizing a one-way analysis of variance coupled with a Dunnett's post hoc test.

[2] = biological target: T1, Rat NHE-3 (Rattus norvegicus, UniProt P26433); assay: Cell-based assay of NHE-3 activity (rat NHE-3 prompt inhibition); conditions: OK cells with rat NHE-3 gene, compound present during pH recovery
T1 construct: expressed in transfected cells; host or cells: Opossum kidney (OK) cells (ATCC), transfected by electroporation
Procedure, shortened: (§1)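 Opossum kidney cells electroporated with rat or human NHE-3, loaded with 5 μM BCECF-AM in NH4Cl-HEPES pH 7.4 for 30 min at RT, then acidified 10 min in Na+-free choline HEPES. Na+-dependent pH recovery rates from BCECF fluorescence, averaged over ≥2 replicates, gave pIC50.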

[3] = biological target: T2, human NHE-3 (Homo sapiens, UniProt P48764); assay: Cell-based assay of NHE-3 activity (human NHE3 inhibition assay); conditions: OK cells with human NHE-3 gene, BCECF pH dye, 0-30 μM test compound
T2 construct: expressed in transfected cells; host or cells: Opossum kidney (OK) cells (ATCC), transfected by electroporation
T2 sequence (P48764 26-834): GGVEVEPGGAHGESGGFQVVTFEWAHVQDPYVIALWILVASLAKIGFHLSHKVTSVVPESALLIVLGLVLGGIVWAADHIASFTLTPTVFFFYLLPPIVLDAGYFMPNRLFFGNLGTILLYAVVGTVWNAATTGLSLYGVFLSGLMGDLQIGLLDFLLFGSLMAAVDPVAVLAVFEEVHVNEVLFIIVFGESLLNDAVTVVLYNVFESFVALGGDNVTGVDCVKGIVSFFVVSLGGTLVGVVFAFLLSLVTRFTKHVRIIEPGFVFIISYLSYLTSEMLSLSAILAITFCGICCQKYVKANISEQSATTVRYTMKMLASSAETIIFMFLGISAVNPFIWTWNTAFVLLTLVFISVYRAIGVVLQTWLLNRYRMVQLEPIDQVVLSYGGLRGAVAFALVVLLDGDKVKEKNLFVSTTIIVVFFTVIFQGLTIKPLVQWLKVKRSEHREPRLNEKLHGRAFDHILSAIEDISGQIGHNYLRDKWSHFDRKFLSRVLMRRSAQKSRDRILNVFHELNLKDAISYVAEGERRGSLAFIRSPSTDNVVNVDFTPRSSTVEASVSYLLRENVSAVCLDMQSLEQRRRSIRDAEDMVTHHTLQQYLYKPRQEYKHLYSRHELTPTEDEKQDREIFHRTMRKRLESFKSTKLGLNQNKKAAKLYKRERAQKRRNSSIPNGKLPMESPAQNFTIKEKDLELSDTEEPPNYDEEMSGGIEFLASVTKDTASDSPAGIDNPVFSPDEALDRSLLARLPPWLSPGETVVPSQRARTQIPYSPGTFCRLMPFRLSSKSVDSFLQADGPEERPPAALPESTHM
Procedure, shortened: as §1

[4] = biological target: T1, Rat NHE-3; assay: Cell-based assay of NHE-3 activity (persistent inhibition, after washout); conditions: OK cells with rat NHE-3 gene, 60 min incubation, recovery initiated 40 min after compound washout
Procedure, shortened: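 OK cells transiently expressing rat NHE-3 were exposed to 0-30 μM compound in NaCl-HEPES pH 7.4 for 60 min, then washed free of drug before NH4Cl/BCECF-AM loading and acid-loading in Na+-free choline buffer. Na+-dependent pH recovery rates (mean of ≥2 replicates) gave pIC50.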

T1 sequence (P26433 29-831): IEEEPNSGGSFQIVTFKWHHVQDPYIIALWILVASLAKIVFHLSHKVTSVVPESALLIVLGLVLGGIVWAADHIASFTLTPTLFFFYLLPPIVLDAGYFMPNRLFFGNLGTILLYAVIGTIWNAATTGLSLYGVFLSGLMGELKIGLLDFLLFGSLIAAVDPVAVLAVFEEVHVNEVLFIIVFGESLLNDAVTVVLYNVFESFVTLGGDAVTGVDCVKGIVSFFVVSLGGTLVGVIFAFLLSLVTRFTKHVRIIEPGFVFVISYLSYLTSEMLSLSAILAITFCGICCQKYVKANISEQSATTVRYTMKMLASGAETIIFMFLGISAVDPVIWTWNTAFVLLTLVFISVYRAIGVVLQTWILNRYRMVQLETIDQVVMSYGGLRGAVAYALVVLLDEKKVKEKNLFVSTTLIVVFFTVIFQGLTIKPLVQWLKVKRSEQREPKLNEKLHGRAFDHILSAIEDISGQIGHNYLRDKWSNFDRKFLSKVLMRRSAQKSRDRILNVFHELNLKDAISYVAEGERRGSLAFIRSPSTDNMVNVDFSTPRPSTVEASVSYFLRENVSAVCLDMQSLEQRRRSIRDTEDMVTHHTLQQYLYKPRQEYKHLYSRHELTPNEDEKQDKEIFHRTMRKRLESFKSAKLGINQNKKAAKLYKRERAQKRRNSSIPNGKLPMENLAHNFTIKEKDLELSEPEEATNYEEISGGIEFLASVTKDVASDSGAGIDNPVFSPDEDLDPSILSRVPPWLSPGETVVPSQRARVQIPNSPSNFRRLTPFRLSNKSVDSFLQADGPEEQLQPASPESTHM

| Rat NHE3 pIC50 (prompt) [2] | Human NHE3 pIC50 [3] | Rat NHE3 pIC50 (persistent) [4] | IC50 ([2]; read-out: Rat NHE3 pIC50 (prompt) (converted)) | IC50 ([3]; read-out: Human NHE3 pIC50 (converted)) | IC50 ([4]; read-out: Rat NHE3 pIC50 (persistent) (converted)) | Compound | response vs control in vivo at 3 mg/kg [1] | FFS [1] |
| --- | --- | --- | --- | --- | --- | --- | --- | --- |
| C (C NHE3 pIC50 > 7) | C (C NHE3 pIC50 > 7) | C (C NHE3 pIC50 > 7) |  |  |  | CN1Cc2c(Cl)cc(Cl)cc2C(c2cccc(S(=O)(=O)NCCOCCOCCNC(=O)CCC(CCC(=O)NCCOCCOCCNS(=O)(=O)c3cccc(C4CN(C)Cc5c(Cl)cc(Cl)cc54)c3)(CCC(=O)NCCOCCOCCNS(=O)(=O)c3cccc(C4CN(C)Cc5c(Cl)cc(Cl)cc54)c3)NC(=O)N(C)CC(O)C(O)C(O)C(O)CO)c2)C1 (stereo not drawn) [Example 29] | 35 to 75% |  |
| B (B NHE3 pIC50 5-7) | B (B NHE3 pIC50 5-7) | C (C NHE3 pIC50 > 7) |  |  |  | CN1Cc2c(Cl)cc(Cl)cc2[C@H](c2cccc(S(=O)(=O)NCCOCCOCCNC(=O)CCC(CCC(=O)NCCOCCOCCNS(=O)(=O)c3cccc([C@@H]4CN(C)Cc5c(Cl)cc(Cl)cc54)c3)(CCC(=O)NCCOCCOCCNS(=O)(=O)c3cccc([C@@H]4CN(C)Cc5c(Cl)cc(Cl)cc54)c3)NC(=O)Cn3ccnc3)c2)C1 [Example 30] | > 75% |  |
| C (C NHE3 pIC50 > 7) | C (C NHE3 pIC50 > 7) | C (C NHE3 pIC50 > 7) |  |  |  | CC(O)C(NC(=O)NC(CCC(=O)NCCOCCOCCNS(=O)(=O)c1cccc(C2CN(C)Cc3c(Cl)cc(Cl)cc32)c1)(CCC(=O)NCCOCCOCCNS(=O)(=O)c1cccc(C2CN(C)Cc3c(Cl)cc(Cl)cc32)c1)CCC(=O)NCCOCCOCCNS(=O)(=O)c1cccc(C2CN(C)Cc3c(Cl)cc(Cl)cc32)c1)C(N)=O (stereo not drawn) [Example 31] | < 35% |  |
| C (C NHE3 pIC50 > 7) | B (B NHE3 pIC50 5-7) | C (C NHE3 pIC50 > 7) |  |  |  | CN1Cc2c(Cl)cc(Cl)cc2[C@H](c2cccc(S(=O)(=O)NCCOCCOCCNC(=O)CCC(CCC(=O)NCCOCCOCCNS(=O)(=O)c3cccc([C@@H]4CN(C)Cc5c(Cl)cc(Cl)cc54)c3)(CCC(=O)NCCOCCOCCNS(=O)(=O)c3cccc([C@@H]4CN(C)Cc5c(Cl)cc(Cl)cc54)c3)NC(=O)NCP(=O)(O)O)c2)C1 [Example 32] | 35 to 75% | 2 |
| C (C NHE3 pIC50 > 7) | C (C NHE3 pIC50 > 7) | C (C NHE3 pIC50 > 7) |  |  |  | CN1Cc2c(Cl)cc(Cl)cc2[C@H](c2cccc(S(=O)(=O)NCCOCCOCCNC(=O)CCC(CCC(=O)NCCOCCOCCNS(=O)(=O)c3cccc([C@@H]4CN(C)Cc5c(Cl)cc(Cl)cc54)c3)(CCC(=O)NCCOCCOCCNS(=O)(=O)c3cccc([C@@H]4CN(C)Cc5c(Cl)cc(Cl)cc54)c3)NC(=O)N3CCN(CCOCCO)CC3)c2)C1 [Example 33] | < 35% | 2 |
| C (C NHE3 pIC50 > 7) | C (C NHE3 pIC50 > 7) | C (C NHE3 pIC50 > 7) |  |  |  | CN1Cc2c(Cl)cc(Cl)cc2[C@H](c2cccc(S(=O)(=O)NCCOCCOCCNC(=O)CCC(CCC(=O)NCCOCCOCCNS(=O)(=O)c3cccc([C@@H]4CN(C)Cc5c(Cl)cc(Cl)cc54)c3)(CCC(=O)NCCOCCOCCNS(=O)(=O)c3cccc([C@@H]4CN(C)Cc5c(Cl)cc(Cl)cc54)c3)NC(=O)NC(CO)CO)c2)C1 [Example 34] | < 35% |  |
| B (B NHE3 pIC50 5-7) | C (C NHE3 pIC50 > 7) | C (C NHE3 pIC50 > 7) |  |  |  | CN1Cc2c(Cl)cc(Cl)cc2[C@H](c2cccc(S(=O)(=O)NCCOCCOCCNC(=O)CCC(CCC(=O)NCCOCCOCCNS(=O)(=O)c3cccc([C@@H]4CN(C)Cc5c(Cl)cc(Cl)cc54)c3)(CCC(=O)NCCOCCOCCNS(=O)(=O)c3cccc([C@@H]4CN(C)Cc5c(Cl)cc(Cl)cc54)c3)NC(=O)Cc3nnn[nH]3)c2)C1 [Example 38] | < 35% |  |
| C (C NHE3 pIC50 > 7) | C (C NHE3 pIC50 > 7) | C (C NHE3 pIC50 > 7) |  |  |  | CN1Cc2c(Cl)cc(Cl)cc2[C@H](c2cccc(S(=O)(=O)NCCOCCOCCNC(=O)CCC(CCC(=O)NCCOCCOCCNS(=O)(=O)c3cccc([C@@H]4CN(C)Cc5c(Cl)cc(Cl)cc54)c3)(CCC(=O)NCCOCCOCCNS(=O)(=O)c3cccc([C@@H]4CN(C)Cc5c(Cl)cc(Cl)cc54)c3)NC(=O)N[C@@H](CO)C(=O)O)c2)C1 [Example 39] | < 35% |  |
| B (B NHE3 pIC50 5-7) | C (C NHE3 pIC50 > 7) | C (C NHE3 pIC50 > 7) |  |  |  | CN1CCN(C(=O)NC(CCC(=O)NCCOCCOCCNS(=O)(=O)c2cccc([C@@H]3CN(C)Cc4c(Cl)cc(Cl)cc43)c2)(CCC(=O)NCCOCCOCCNS(=O)(=O)c2cccc([C@@H]3CN(C)Cc4c(Cl)cc(Cl)cc43)c2)CCC(=O)NCCOCCOCCNS(=O)(=O)c2cccc([C@@H]3CN(C)Cc4c(Cl)cc(Cl)cc43)c2)CC1 [Example 41] | < 35% |  |
|  |  |  | 100 to 10000 nM | < 100 nM | < 100 nM | CN1Cc2c(Cl)cc(Cl)cc2[C@H](c2cccc(S(=O)(=O)NCCOCCOCCNC(=O)N(C)CCCN(CCCN(C)C(=O)NCCOCCOCCNS(=O)(=O)c3cccc([C@@H]4CN(C)Cc5c(Cl)cc(Cl)cc54)c3)CCCN(C)C(=O)NCCOCCOCCNS(=O)(=O)c3cccc([C@@H]4CN(C)Cc5c(Cl)cc(Cl)cc54)c3)c2)C1 [Example 47, (S)—N,N′-(15-(1-(3-((S)-6,8-dichloro-2-methyl-1,2,3,4-tetrahydroisoquinolin-4-yl)phenylsulfonamido)-11-methyl-10-oxo-3,6-dioxa-9,11-diazatetradecan-14-yl)-11,19-dimethyl-10,20-dioxo-3,6,24,27-tetraoxa-9,11,15,19,21-pentaazanonacosane-1,29-diyl)bis(3-((S)-6,8-dichloro-2-methyl-1,2,3,4-tetrahydroisoquinolin-4-yl)benzenesulfonamide)] | 35 to 75% |  |
